Consider 22 molecules from patent US5461045A, “Fused benzeneoxyacetic acid derivatives” (Ono Pharmaceutical Co., Ltd., priority 1992, dated 1995).

In one assay the target is T1, PGI2 receptor (Homo sapiens, UniProt P43119).
T1 construct: 300 μg of platelet plasma membranes; from tissue; host or cells: human platelets (plasma membranes)
Description: Inhibitory activity against 3H-iloprost binding onto PGI2 receptor in human platelet membrane fraction. As to conditions: inhibition of 10 nM [3H]-iloprost specific binding; human platelet membranes 300 μg; 24° C., 30 min; pH 7.4. The procedure: i) Inhibitory activity against ^3 H-iloprost onto PGI2 receptor in human platelet membrane fraction The binding assay was performed in 200 μl volumes containing 300 μg of platelet plasma membranes. The membranes were added to a buffer composed of 50 mM Tris-HCl (pH 7.4), 15 mM MgCl2, 5 mM EDTA with test compound and 10 nM [^3 H]-iloprost. The membranes were incubated at 24° C. for 30 min. After incubation, 4ml of ice-cold 10 mM Tris-HCl buffer (pH 7.4) was added to the reaction mixture, and filtered through Whatman GF/B glass fiber filter, and washed 4 times with 4 ml of ice-cold 10 mM Tris-HCl buffer (pH 7.4) to separate bound and free [^3 H]-iloprost. After washing, the filter was dried and radioactivity was counted. Non-specific binding was obtained by performing parallel binding experiments in the presence of 10 μM non-labelled iloprost. Specific binding was calculated by subtracting the non-specific binding from the total binding. The inhibitory effect of test compound was calculated from the following equation. The percentage of inhibition (%)=100-(B1 /B0 ×100) B1 : specific [^3 H]-iloprost binding in presence of test compound B0 : specific [^3 H]-iloprost binding in absence of test compound

Assay [1] relates to Human platelet aggregation. The assay can be described thus: Inhibitory effect on human platelet aggregation (ADP-induced, platelet-rich plasma). To be noted: compound added 1 min prior to ADP (4 μM). In kind it is cell-based. Here is the method:
| ii) Inhibitory effect on Human platelet aggregation Method of | experiment Platelet-rich plasma was prepared from human blood (5×10^5 platelets/mm^3), and the test compound was added to PRP 1 min prior to the addition of ADP (4 μM). The aggregation was monitored using a platelet aggregometer (NBS HEMA TRACER 601, Niko Bioscience, Japan).

T1 sequence (P43119 whole entry): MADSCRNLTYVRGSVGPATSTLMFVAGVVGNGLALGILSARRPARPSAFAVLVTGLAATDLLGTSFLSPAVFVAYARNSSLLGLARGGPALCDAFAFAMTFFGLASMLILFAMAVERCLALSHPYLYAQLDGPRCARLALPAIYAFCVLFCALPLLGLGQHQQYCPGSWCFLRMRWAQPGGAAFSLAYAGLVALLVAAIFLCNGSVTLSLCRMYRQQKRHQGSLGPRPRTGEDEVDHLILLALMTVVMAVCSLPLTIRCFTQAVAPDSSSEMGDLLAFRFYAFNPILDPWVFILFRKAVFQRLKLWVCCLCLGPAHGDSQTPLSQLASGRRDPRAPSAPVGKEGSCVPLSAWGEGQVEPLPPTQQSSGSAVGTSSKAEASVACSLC

Broadly, the IC50 is the concentration that gives 50% inhibition. Low values mean greater potency, high ones weaker potency. For `O=C(O)COc1cccc2c1CCCC2CC=NOC(c1ccccc1)c1ccccc1` (stereo not drawn) [3(a)], at PGI2 receptor, the IC50 worked out at 5400 nM.

`O=C(O)COc1cccc2c1CCC2CC=NOC(c1ccccc1)c1ccccc1` (stereo not drawn) [3(e)] registered an IC50 on PGI2 receptor of 3600 nM.

`CC(CC1CCc2c(cccc2OCC(=O)O)C1)=NOC(c1ccc(F)cc1)c1ccc(F)cc1` (stereo not drawn) [6(e)] returned an IC50 at PGI2 receptor of 480 nM.

The molecule `CC(CC1CCc2c(cccc2OCC(=O)O)C1)=NOC(c1ccccc1)c1ccc([N+](=O)[O-])cc1` (stereo not drawn) [6(f)] registered an IC50 on PGI2 receptor of 1000 nM.

Regarding `CC(CC1CCc2c(cccc2OCC(=O)O)C1)=NOC(c1ccccc1)c1ccncc1` (stereo not drawn) [6(g)], the IC50 on PGI2 receptor was 700 nM.

For the molecule `CC(CC1CCc2c(cccc2OCC(=O)O)C1)=NOC(c1ccccc1)c1cccnc1` (stereo not drawn) [6(h)], the IC50 on PGI2 receptor turned out to be 1300 nM; in assay [1] it was 1100 nM.

Turning to `CC(CC1CCc2c(cccc2OCC(=O)O)C1)=NOC(c1ccccc1)c1ccccn1` (stereo not drawn) [6(i)], the IC50 on PGI2 receptor turned out to be 1800 nM.

In turn, `COc1ccc(C(ON=C(C)CC2CCc3c(cccc3OCC(=O)O)C2)c2ccc(OC)cc2)cc1` (stereo not drawn) [6(j)] yielded an IC50 at PGI2 receptor of 1800 nM.

Turning to `CC(CC1CCc2c(cccc2OCC(=O)O)C1)=NOC(c1ccccc1)c1ccc(Cl)cc1` (stereo not drawn) [6(k)], the IC50 on PGI2 receptor amounted to 300 nM.

In turn, `CC(CC1CCc2c(cccc2OCC(=O)O)C1)=NOCc1ccccc1` (stereo not drawn) [6(l)] yielded an IC50 at PGI2 receptor of 1400 nM.

On to `CCC(CC1CCc2c(cccc2OCC(=O)O)C1)=NOC(c1ccccc1)c1ccccc1` (stereo not drawn) [6(m)], for which the IC50 was found to be 270 nM on PGI2 receptor and 71 nM in assay [1].

Regarding `CCCC(CC1CCc2c(cccc2OCC(=O)O)C1)=NOC(c1ccccc1)c1ccccc1` (stereo not drawn) [6(n)], the values for the concentration for half-maximal inhibition (IC50) (at PGI2 receptor; in assay [1]) were 270 nM and 120 nM, respectively.

On PGI2 receptor, `CC(C)C(CC1CCc2c(cccc2OCC(=O)O)C1)=NOC(c1ccccc1)c1ccccc1` (stereo not drawn) [6(o)] returned an IC50 of 2300 nM.

`O=C(O)COc1cccc2c1CCC(CC(=NOC(c1ccccc1)c1ccccc1)c1ccccc1)C2` (stereo not drawn) [6(p)] showed an IC50 on PGI2 receptor of 2800 nM.

Take `CCCCCC(ON=C(C)CC1CCc2c(cccc2OCC(=O)O)C1)c1ccccc1` (stereo not drawn) [6(r)]: the IC50 at PGI2 receptor is 2700 nM.

Take `CC(CC1CCc2c(cccc2OCC(=O)O)C1)=NOC(c1ccccc1)C1CCCCC1` (stereo not drawn) [6(s)]: the IC50 on PGI2 receptor came out at 9600 nM.

In the case of `O=C(O)COc1cccc2c1CCC(CC=NOC(c1ccccc1)c1ccccc1)C2` (stereo not drawn) [Example 3, [2-(2-Diphenylmethyloxyiminoethyl)-1,2,3,4-tetrahydro-naphthalen-5-yloxy]acetic acid], the IC50 at PGI2 receptor was 890 nM; in assay [1], 500 nM.

`O=C(O)COc1cccc2c1CCC(CCC=NOC(c1ccccc1)c1ccccc1)C2` (stereo not drawn) [Example 4, [2-(3-Diphenylmethyloxyiminopropyl)-1,2,3,4-tetrahydro-naphthalen-5-yloxy]acetic acid] displayed a 50% inhibitory concentration (IC50) at PGI2 receptor of 2500 nM.

Regarding `CCOC(=O)COc1cccc2c1CCC(CC(C)=NOC(c1ccccc1)c1ccccc1)C2` (stereo not drawn) [Example 5, [2-(2-Diphenylmethyloxyiminopropyl)-1,2,3,4-tetrahydro-naphthalen-5-yloxy]acetic acid ethyl ester], the IC50 on PGI2 receptor came to 7000 nM.

In the case of `CC(CC1CCc2c(cccc2OCC(=O)O)C1)=NOC(c1ccccc1)c1ccccc1` (stereo not drawn) [Example 6, [2-(2-Diphenylmethyloxyiminopropyl)-1,2,3,4-tetrahydro-naphthalen-5-yloxy]acetic acid], the IC50 at PGI2 receptor was 280 nM; in assay [1], 240 nM.

Molecule `O=C(O)COc1cccc2c1CCC(CCNOC(c1ccccc1)c1ccccc1)C2` (stereo not drawn) [Example 8, [2-(2-Diphenylmethyloxyaminoethyl)-1,2,3,4-tetrahydro-naphthalen-5-yloxy]acetic acid] yielded an IC50 at PGI2 receptor of 4000 nM.

In turn, `O=C(O)COc1cccc2c1CCCC(C=NOC(c1ccccc1)c1ccccc1)C2` (stereo not drawn) [Example 9] returned a 50% inhibitory concentration (IC50) at PGI2 receptor of 1900 nM.
